Here are results for six compounds from ChEMBL document CHEMBL1157376, “Plasmid-mediated quinolone resistance determinant QnrB4 identified in France in an Enterobacter cloacae clinical isolate coexpressing a QnrS1 determinant” (2007).

Converted amounts (≈) assume the structure as drawn.

Usually MIC stands for the lowest concentration found to suppress growth. A high value points to a less susceptible organism.

Assay type in all cases: functional
Assay [1] concerns Escherichia coli. As to the kind of experiment: Antibacterial activity against Escherichia coli TOP10 containing pS1B plasmid expressing quinolone resistance determinant QnrS1 by E-test.
Assay [2] concerns Escherichia coli. As to the kind of experiment: Antibacterial activity against Escherichia coli TOP10 by E-test.
Assay [3] deals with Enterobacter cloacae. As to the kind of experiment: Antibacterial activity against Enterobacter cloacae S1 isolate expressing quinolone resistance determinant QnrB4 by E-test.
Assay [4] deals with Escherichia coli. The assay is described as follows: Antibacterial activity against Escherichia coli TOP10 containing pS1A plasmid expressing quinolone resistance determinant QnrB4 by E-test.

As for `C[C@@H]1CN(c2c(F)c(N)c3c(=O)c(C(=O)O)cn(C4CC4)c3c2F)C[C@H](C)N1` [SPARFLOXACIN], the minimal inhibitory concentration (MIC) in assay [1] is 0.25 µg/mL (≈ 0.637 µM); in assay [2], under 0.01 µg/mL; in assay [3] it was over 32 µg/mL; in assay [4], 0.03 µg/mL (≈ 0.0765 µM).

For `CCn1cc(C(=O)O)c(=O)c2cc(F)c(N3CCNCC3)cc21` [NORFLOXACIN], the MIC is 0.5 µg/mL (≈ 1.57 µM) in assay [1], 0.03 µg/mL (≈ 0.0939 µM) in assay [2], over 32 µg/mL in assay [3] and 0.25 µg/mL (≈ 0.783 µM) in assay [4].

`COc1c(N2C[C@@H]3CCCN[C@@H]3C2)c(F)cc2c(=O)c(C(=O)O)cn(C3CC3)c12` [MOXIFLOXACIN]: the MIC in assay [1] was 0.25 µg/mL (≈ 0.623 µM); in assay [2], under 0.01 µg/mL; in assay [4], 0.12 µg/mL (≈ 0.299 µM).

As for `CC1COc2c(N3CCN(C)CC3)c(F)cc3c(=O)c(C(=O)O)cn1c23` (stereo not drawn) [OFLOXACIN], the MIC in assay [1] was 0.25 µg/mL (≈ 0.692 µM); in assay [3], over 32 µg/mL.

Turning to `CCn1cc(C(=O)O)c(=O)c2ccc(C)nc21` [NALIDIXIC ACID], the minimum inhibitory concentration (MIC) was 4 µg/mL (≈ 17.2 µM) in assay [1], 1 µg/mL (≈ 4.31 µM) in assay [2], over 256 µg/mL in assay [3] and 2 µg/mL (≈ 8.61 µM) in assay [4].

Take `O=C(O)c1cn(C2CC2)c2cc(N3CCNCC3)c(F)cc2c1=O` [CIPROFLOXACIN]: the minimal inhibitory concentration (MIC) in assay [2] is under 0.01 µg/mL.
